One assay deals with T1, recombinant human MER (Homo sapiens, UniProt Q12866).
T1 construct: purchased Invitrogen
T1 sequence (Q12866 21-999): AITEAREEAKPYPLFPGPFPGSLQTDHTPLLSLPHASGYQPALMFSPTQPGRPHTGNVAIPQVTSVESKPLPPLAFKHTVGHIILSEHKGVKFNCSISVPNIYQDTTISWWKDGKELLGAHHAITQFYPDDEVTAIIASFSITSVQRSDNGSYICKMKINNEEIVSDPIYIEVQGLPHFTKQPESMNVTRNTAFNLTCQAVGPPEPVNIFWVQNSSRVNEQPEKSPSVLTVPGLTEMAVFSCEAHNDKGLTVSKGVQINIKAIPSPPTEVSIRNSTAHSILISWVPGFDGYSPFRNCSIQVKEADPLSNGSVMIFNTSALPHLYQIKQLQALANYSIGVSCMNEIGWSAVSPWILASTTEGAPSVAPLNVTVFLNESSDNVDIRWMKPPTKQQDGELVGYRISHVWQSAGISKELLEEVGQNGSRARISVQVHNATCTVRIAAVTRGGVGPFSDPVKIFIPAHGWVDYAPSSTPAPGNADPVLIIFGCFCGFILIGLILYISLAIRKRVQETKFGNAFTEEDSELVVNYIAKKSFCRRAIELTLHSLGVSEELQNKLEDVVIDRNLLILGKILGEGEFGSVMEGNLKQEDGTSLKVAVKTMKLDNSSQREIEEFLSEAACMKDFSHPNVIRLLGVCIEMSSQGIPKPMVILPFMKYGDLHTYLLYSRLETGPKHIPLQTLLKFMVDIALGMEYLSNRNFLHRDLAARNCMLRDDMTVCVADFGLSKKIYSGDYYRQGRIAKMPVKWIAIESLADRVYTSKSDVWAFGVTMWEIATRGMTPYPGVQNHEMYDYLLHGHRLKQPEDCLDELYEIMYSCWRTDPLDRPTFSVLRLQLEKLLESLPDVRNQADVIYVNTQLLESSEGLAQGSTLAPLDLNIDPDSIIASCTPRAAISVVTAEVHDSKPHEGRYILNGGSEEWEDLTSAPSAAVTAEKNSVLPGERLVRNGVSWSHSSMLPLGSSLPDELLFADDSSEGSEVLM
Description: Biochemical potency, HTRF KinEASE-TK kinase assay. As to conditions: 1 nM MER, 700 μM ATP. The method in brief:
(§1)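 Compounds preincubated 1 h at RT with enzyme in 50 mM HEPES pH 7.4, 10 mM MgCl2, 0.01% BSA, 1 mM DTT; reactions then ran 2 h at RT with 5 nM AXL or 1 nM TYRO3/MER, 800 nM TK substrate-biotin, 700 μM ATP, 1% DMSO. HTRF 665/620 ratio read; percent activity calculated.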

Another assay deals with T2, recombinant human TYRO3 (Homo sapiens, UniProt Q06418).
T2 construct: purchased Invitrogen
T2 sequence (Q06418 41-890): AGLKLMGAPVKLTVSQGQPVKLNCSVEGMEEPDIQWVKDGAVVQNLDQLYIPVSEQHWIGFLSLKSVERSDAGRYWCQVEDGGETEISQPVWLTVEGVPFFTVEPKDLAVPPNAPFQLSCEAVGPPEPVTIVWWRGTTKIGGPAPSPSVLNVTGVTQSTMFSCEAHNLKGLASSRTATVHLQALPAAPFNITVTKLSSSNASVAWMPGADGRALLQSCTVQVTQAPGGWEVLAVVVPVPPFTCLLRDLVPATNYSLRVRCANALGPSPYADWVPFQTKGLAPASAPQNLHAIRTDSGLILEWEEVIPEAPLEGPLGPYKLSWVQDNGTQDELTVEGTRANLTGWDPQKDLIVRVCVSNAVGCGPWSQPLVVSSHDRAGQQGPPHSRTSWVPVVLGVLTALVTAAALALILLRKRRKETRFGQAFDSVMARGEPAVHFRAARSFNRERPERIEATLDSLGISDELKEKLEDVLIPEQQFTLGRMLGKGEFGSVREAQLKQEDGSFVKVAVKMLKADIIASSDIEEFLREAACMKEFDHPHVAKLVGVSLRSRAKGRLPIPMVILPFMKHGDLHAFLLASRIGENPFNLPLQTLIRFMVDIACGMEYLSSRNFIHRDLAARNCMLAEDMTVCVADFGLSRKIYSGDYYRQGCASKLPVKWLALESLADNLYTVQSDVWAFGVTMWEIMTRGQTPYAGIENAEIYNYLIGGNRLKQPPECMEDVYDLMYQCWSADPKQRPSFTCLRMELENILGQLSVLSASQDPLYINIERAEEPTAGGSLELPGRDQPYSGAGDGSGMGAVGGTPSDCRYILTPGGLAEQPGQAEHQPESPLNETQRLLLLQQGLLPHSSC
Description: Biochemical potency, HTRF KinEASE-TK kinase assay. The note with it: 1 nM TYRO3, 700 μM ATP. A digest of the protocol:
as §1
A general note: TR-FRET usually uses a lanthanide donor and a delayed reading to cut background.

Structures are written as SMILES.

The term IC50 denotes the concentration needed to halve the response being measured. Turning to `COCCOc1cccnc1-c1ccc(-c2c[nH]c3ncc(-c4ccc5c(c4)CC[C@@H](N4C6COCC4C6)CC5)cc23)cc1` [Example 3, 6-[(7S)-2-(3-{4-[3-(2-Methoxyethoxy)pyridin-2-yl]phenyl}-1H-pyrrolo[2,3-b]pyridin-5-yl)-6,7,8,9-tetrahydro-5H-benzo[7]annulen-7-yl]-3-oxa-6-azabicyclo[3.1.1]heptane], the IC50 at recombinant human MER and on recombinant human TYRO3 was under 0.1 µM throughout.
For `C[C@@H]1CCCN1[C@@]1(C)CCc2ccc(-c3cnc4[nH]nc(-c5ccc(-c6nccs6)cc5)c4c3)cc2CC1` [Example 91, 2-(4-{5-[(7S)-7-Methyl-7-[(2R)-2-methylpyrrolidin-1-yl]-6,7,8,9-tetrahydro-5H-benzo[7]annulen-2-yl]-2H-pyrazolo[3,4-b]pyridin-3-yl}phenyl)-1,3-thiazole], the IC50 at recombinant human MER and on recombinant human TYRO3 was 0.1 to 1 µM throughout.
On to `Cc1cnc(-c2ccc(-c3c[nH]c4ncc(-c5ccc6c(c5)CC[C@@H](N5CCCC5)CC6)cc34)cc2)c(C)n1` [Example 59, 3,5-Dimethyl-2-(4-{5-[(7S)-7-(pyrrolidin-1-yl)-6,7,8,9-tetrahydro-5H-benzo[7]annulen-2-yl]-1H-pyrrolo[2,3-b]pyridin-3-yl}phenyl)pyrazine], for which the IC50 at recombinant human MER and at recombinant human TYRO3 was 0.1 to 1 µM each time.
As to `Cc1ccnnc1-c1ccc(-c2n[nH]c3ncc(-c4ccc5c(c4)CC[C@@H](N4C6COCC4C6)CC5)cc23)nc1` [Example 56, 6-[(7S)-2-{3-[5-(4-Methylpyridazin-3-yl)pyridin-2-yl]-1H-pyrazolo[3,4-b]pyridin-5-yl}-6,7,8,9-tetrahydro-5H-benzo[7]annulen-7-yl]-3-oxa-6-azabicyclo[3.1.1]heptane], the IC50 on recombinant human MER and at recombinant human TYRO3 was 0.1 to 1 µM in each case.
Regarding `c1cncc(-c2ccc(-c3n[nH]c4ncc(-c5ccc6c(c5)CC[C@@H](N5C7COCC5C7)CC6)cc34)cc2)c1` [Example 157, 6-[(7S)-2-{3-[4-(Pyridin-3-yl)phenyl]-2H-pyrazolo[3,4-b]pyridin-5-yl}-6,7,8,9-tetrahydro-5H-benzo[7]annulen-7-yl]-3-oxa-6-azabicyclo[3.1.1]heptane], the IC50 at recombinant human MER and on recombinant human TYRO3 was over 1 µM in each case.
Regarding `COc1cc(-c2c[nH]c3ncc(-c4ccc5c(c4)CC[C@@H](N4C6COCC4C6)CC5)cc23)ccc1-c1ccccn1` [Example 161, 6-[(7S)-2-{3-[3-Methoxy-4-(pyridin-2-yl)phenyl]-1H-pyrrolo[2,3-b]pyridin-5-yl}-6,7,8,9-tetrahydro-5H-benzo[7]annulen-7-yl]-3-oxa-6-azabicyclo[3.1.1]heptane], the IC50 at recombinant human MER and at recombinant human TYRO3 was 0.1 to 1 µM throughout.
Consider `c1cc(-c2ccc(-c3c[nH]c4ncc(-c5ccc6c(c5)CC[C@@H](N5C7COCC5C7)CC6)cc34)cc2)ccn1` [Example 41, 6-[(7S)-2-{3-[4-(Pyridin-4-yl)phenyl]-1H-pyrrolo[2,3-b]pyridin-5-yl}-6,7,8,9-tetrahydro-5H-benzo[7]annulen-7-yl]-3-oxa-6-azabicyclo[3.1.1]heptane], for which the figures for the IC50 on recombinant human MER and on recombinant human TYRO3 were 0.1 to 1 µM and over 1 µM, respectively.
Turning to `FC(F)c1cccnc1-c1ccc(-c2n[nH]c3ncc(-c4ccc5c(c4)CC[C@@H](N4C6COCC4C6)CC5)cc23)cc1` [Example 89, 6-[(7S)-3-[3-[4-[3-(Difluoromethyl)pyridin-2-yl]phenyl]-1H-pyrazolo[3,4-b]pyridin-5-yl]-6,7,8,9-tetrahydro-5H-benzo[7]annulen-7-yl]-3-oxa-6-azabicyclo[3.1.1]heptane], the IC50 on recombinant human MER and at recombinant human TYRO3 was 0.1 to 1 µM in each case.
For the compound `Cc1nccnc1-c1ccc(-c2c[nH]c3ncc(-c4ccc5c(c4)CC[C@@H](N4C6COCC4C6)CC5)cc23)nc1` [Example 54, 6-[(7S)-2-{3-[5-(3-Methylpyrazin-2-yl)pyridin-2-yl]-1H-pyrrolo[2,3-b]pyridin-5-yl}-6,7,8,9-tetrahydro-5H-benzo[7]annulen-7-yl]-3-oxa-6-azabicyclo[3.1.1]heptane], the values for the IC50 on recombinant human MER and on recombinant human TYRO3 were over 1 µM and 0.1 to 1 µM, respectively.
On the same counts, the results for `c1ccc(-c2ccc(-c3c[nH]c4ncc(-c5ccc6c(c5)CC[C@@H](N5C[C@@H]7C[C@H]5CO7)CC6)cc34)cc2)nc1` [Example 33, (1S,4S)-5-[(7S)-3-[3-(4-Pyridin-2-ylphenyl)-1H-pyrrolo[2,3-b]pyridin-5-yl]-6,7,8,9-tetrahydro-5H-benzo[7]annulen-7-yl]-2-oxa-5-azabicyclo[2.2.1]heptane] are 0.1 to 1 µM and 0.1 to 1 µM.
The corresponding values for `COc1cc(-c2n[nH]c3ncc(-c4ccc5c(c4)CC[C@@H](N4C6COCC4C6)CC5)cc23)ccc1-c1ccccn1` [Example 160, 6-[(7S)-2-{3-[3-Methoxy-4-(pyridin-2-yl)phenyl]-2H-pyrazolo[3,4-b]pyridin-5-yl}-6,7,8,9-tetrahydro-5H-benzo[7]annulen-7-yl]-3-oxa-6-azabicyclo[3.1.1]heptane] are 0.1 to 1 µM and 0.1 to 1 µM.
With `Cc1cnc(C)c(-c2ccc(-c3c[nH]c4ncc(-c5ccc6c(c5)CC[C@@H](N5C7COCC5C7)CC6)cc34)cc2)n1` [Example 53, 6-[(7S)-2-{3-[4-(3,6-Dimethylpyrazin-2-yl)phenyl]-1H-pyrrolo[2,3-b]pyridin-5-yl}-6,7,8,9-tetrahydro-5H-benzo[7]annulen-7-yl]-3-oxa-6-azabicyclo[3.1.1]heptane], the IC50 at recombinant human MER and on recombinant human TYRO3 was 0.1 to 1 µM each time.
Take `c1cc(-n2cc(-c3c[nH]c4ncc(-c5ccc6c(c5)CC[C@@H](N5C7COCC5C7)CC6)cc34)cn2)ccn1` [Example 45, 6-[(7S)-2-{3-[1-(Pyridin-4-yl)-1H-pyrazol-4-yl]-1H-pyrrolo[2,3-b]pyridin-5-yl}-6,7,8,9-tetrahydro-5H-benzo[7]annulen-7-yl]-3-oxa-6-azabicyclo[3.1.1]heptane]: the IC50 on recombinant human MER and at recombinant human TYRO3 was over 1 µM in each case.
As for `Cc1cnc(-c2ccc(-c3c[nH]c4ncc(-c5ccc6c(c5)CC[C@@](C)(N5CCC[C@H]5C)CC6)cc34)cc2)c(C)n1` [Example 57, 3,5-Dimethyl-2-(4-{5-[(7S)-7-methyl-7-[(2R)-2-methylpyrrolidin-1-yl]-6,7,8,9-tetrahydro-5H-benzo[7]annulen-2-yl]-1H-pyrrolo[2,3-b]pyridin-3-yl}phenyl)pyrazine], the IC50 on recombinant human MER and on recombinant human TYRO3 was 0.1 to 1 µM each time.
Take `Cc1cc(C)c(-c2ccc(-c3n[nH]c4ncc(-c5ccc6c(c5)CC[C@@H](N5C7COCC5C7)CC6)cc34)cc2)nn1` [Example 77, 6-[(7S)-2-{3-[4-(4,6-Dimethylpyridazin-3-yl)phenyl]-1H-pyrazolo[3,4-b]pyridin-5-yl}-6,7,8,9-tetrahydro-5H-benzo[7]annulen-7-yl]-3-oxa-6-azabicyclo[3.1.1]heptane]: the IC50 on recombinant human MER is 0.1 to 1 µM; at recombinant human TYRO3 it was under 0.1 µM.

Source of the values: US12195482B1 (Arcus Biosciences, Inc., priority 2022, dated 2025).
